# Assay results as given in article PMC8512560, “Design, Synthesis, and Antipoliferative Activities of Novel Substituted Imidazole-Thione Linked Benzotriazole Derivatives” (Molecules, 2021).
# Values joined by “and” are separate entries in the source; they are usually repeats but may differ in a detail not shown here. Identical values can stand only once.
# Tests used:
# [1] = tested on: HL-60 human leukemia cancer cell line; assay: MTT viability assay, HL-60; format: cell-based; details: Homo sapiens, HL-60, 72 h, mean ± SD of three independent experiments, read-out: Antiproliferative Activities IC50, HL-60
# Procedure: (§1) All the human tumour cell lines MCF-7, HL-60, HCT-116, and HUVEC were cultured in Dulbecco’s Modified Eagle’s Medium (DMEM) with 10% fetal bovine serum, 2 mM L-glutamine and 100 µg/mL penicillin/streptomycin. Cells were maintained at 37 °C in 5% CO2 in a humidified incubator. All cells were sub-cultured three times/week by trypsinization using TrypLE Express (1X).
# (§2) The Benzotriazole compounds were evaluated for antiproliferative effect using the MTT viability assay of various cancer cell lines (MCF-7, HCT-116 and HL-60) and the normal human umbilical vein endothelial cell line (HUVEC) to calculate the relative IC50 values for each compound. Cells were seeded in triplicate in 96-well plates at a density of 10 × 10^3 cells/mL in a total volume of 200 µL per well. 0.1% of DMSO was used as a vehicle control. After this time, they were treated with 2 µL test compound which had been pre-prepared as stock solutions in ethanol to furnish the concentration range of study, 10 nM to 100 µM, and re-incubated for a further 72 h. The culture medium was then removed, and the cells washed with 100 µL phosphate buffered saline (PBS) and 50 µL MTT added, to reach a final concentration of 1 mg/mL MTT added. Cells were incubated for 2 h in darkness at 37 °C. At this point solubilisation was begun through the addition of […] DMSO and the cells maintained at room temperature in darkness for 20 min to ensure thorough colour diffusion before reading the absorbance. Plates were incubated for 72 h at 37 °C + 5% CO2. The MTT (5 mg/mL in PBS) was added and incubated for another 4 h, and the optical density was detected with a microplate reader at 570 nm. Results were expressed as percentage viability relative to vehicle control (100%). Dose response curves were plotted and IC50 values (concentration of drug resulting in 50% reduction in cell survival) were obtained using the commercial software package Prism (GraphPad Software, Inc., La Jolla, CA, USA). All the experiments were repeated in at least three independent experiments.
# [2] = tested on: HL-60 cells; assay: Annexin V/PI apoptotic assay by flow cytometry; format: cell-based, human; details: BI9 1 µM, CA-4 concentration not given, control 1.6%
# Procedure: Apoptotic cell death was detected by flow cytometry using Annexin V and propidium iodide (PI). HL-60 Cells were seeded in 6 well plated at density of 1 × 10^5 cells/mL and treated with vehicle (0.1% (v/v) EtOH), positive control (CA-4) or compound BI9 (1 µM) for 48 and 72 h. Cells were then harvested and prepared for flow cytometric analysis. Cells were washed in 1X binding buffer ([…] binding buffer: 0.1M HEPES, pH 7.4; 1.4 M NaCl; 25 mM CaCl2 diluted in dH2O) and incubated in the dark for 30 min on ice in Annexin V-containing binding buffer [1:100]. Cells were then washed once in binding buffer and then re-suspended in PI-containing binding buffer [1:1000]. Samples were analysed immediately using the BD accuri flow cytometer and prism software for analysis the data. Four populations are produced during the assay Annexin V and PI negative (Q4, healthy cells), Annexin V positive and PI negative (Q3, early apoptosis), Annexin V and PI positive (Q2, late apoptosis) and Annexin V negative and PI positive (Q1, necrosis).
# [3] = tested on: bovine brain tubulin; assay: Tubulin polymerization assay (turbidimetric, kit BK006); format: biochemical; details: read-out: Anti-Tubulin Activity IC50 ± SD (inhibition of tubulin polymerization)
# Procedure: The assembly of purified bovine tubulin was monitored using a kit, BK006, purchased from Cytoskeleton Inc., (Denver, CO, USA). The assay was carried out in accordance with the manufacturer’s instructions using the standard assay conditions. Briefly, purified ([…]) in a buffer consisting of 80 mM PIPES (pH 6.9), 0.5 mM EGTA, 2 mM MgCl2, 1 mM GTP and 10% glycerol was incubated at 37 °C in the presence of either vehicle (2% (v/v) ddH2O), CA-4, benzotriazole compounds. Light was scattered proportionally to the concentration of polymerized microtubules in the assay. Therefore, the tubulin assembly was monitored turbidimetrically at 340 nm in a Spectramax 340 PC spectrophotometer (Molecular Devices, Sunnyvale, CA, USA). The concentration that inhibits tubulin polymerization by 50% (IC50) was determined using area under the curve (AUC). The AUC of the untreated controls were considered as 100% polymerization. The IC50 value for each compound was computed using GraphPad Prism Software.
# [4] = tested on: MCF-7 human breast cancer cell line; assay: MTT viability assay, MCF-7; format: cell-based; details: Homo sapiens, MCF7, 72 h, mean ± SD of three independent experiments, read-out: Antiproliferative Activities IC50, MCF-7
# Procedure: as §1, §2
# [5] = tested on: HUVEC human umbilical vein endothelial cell line; assay: MTT viability assay, normal HUVEC cells; format: cell-based; details: 72 h, mean ± SD of three independent experiments
# Procedure: as §1, §2
# [6] = tested on: colchicine binding site of tubulin; assay: Colchicine site competitive binding assay ([3H]colchicine); details: tubulin and colchicine at 1 and 5 µM
# Procedure: The affinity of Benzotriazole compounds to colchicine binding site was determined using a Colchicine Site Competitive Assay kit CytoDYNAMIX Screen15 (Cytoskeleton, Inc., Denver, CO, USA) using the standard protocol of the manufacturer to determine Ki values (μM). Biotin-labelled tubulin ([…]) and the test compounds (positive control colchicine, negative control vinblastine, G-1, fluorescent G-1, or 2-ME) in a 96-well plate (final volume: 100 μL). After incubating for 2 h at 37 °C with gentle shaking, streptavidin-labelled yttrium SPA beads (80 μg in 20 μL reaction buffer, PerkinElmer, Waltham, MA) were added to each well and incubated for 30 min at 4 °C. The plates were then read on a scintillation counter (Packard Instrument, Topcount Microplate Reader) and the percentage of inhibition was calculated.
# [7] = tested on: HCT-116 human colon cancer cell line; assay: MTT viability assay, HCT-116; format: cell-based; details: Homo sapiens, HCT-116, 72 h, mean ± SD of three independent experiments, read-out: Antiproliferative Activities IC50, HCT-116
# Procedure: as §1, §2
# [8] = tested on: HL-60 cells; assay: Cell cycle analysis by PI flow cytometry; format: cell-based, human; details: 50 nM
# Procedure: HL-60 cells were seeded at a density of 1 × 10^5 cells/well in 6-well plates and treated with CA-4 and compound BI9 (1 µM) for 48 and 72 h. The cells were collected by trypsinization and centrifuged at 800× g for 15 min. Cells were washed twice with ice-cold PBS and fixed in ice-cold 70% ethanol overnight at −20 °C. Fixed cells were centrifuged at 800× g for 15 min and stained with 50 μg/mL of PI, containing 50 μg/mL of DNase-free RNase A, at 37 °C for 30 min. The DNA content of cells (10,000 cells/experimental group) was analysed by flow cytometer at 488 nm using a FACSCalibur flow cytometer (BD Biosciences, San Jose, CA, USA) and all data were recorded and analysed using the CellQuest Software (Becton-Dickinson).
smiles,measurement,setting,value
"COc1ccc(/C=C\c2cc(OC)c(OC)c(OC)c2)cc1O [CA-4, Combretastatin A-4, reference compound]",IC50,[1],770 ± 50 nM
same,Total fraction of early and late apoptotic cells (Annexin V positive),[2]; 48 h,18.7%
same,Average fraction of Annexin V-staining positive cells (total apoptotic cells),[2]; 72 h,23.7%
same,IC50,[4],580 ± 20 nM
same,IC50,[5],13600 ± 650 nM
same,"Colchicine Binding % ± SD (inhibition of [3H]colchicine binding), 1 µM Drug",[6]; 1 µM drug,64% and 64.23 ± 0.9%
same,"Colchicine Binding % ± SD (inhibition of [3H]colchicine binding), 5 µM Drug",[6]; 5 µM drug,85% and 85.63 ± 2%
same,IC50,[7],240 ± 20 nM
same,Proportion of HL-60 cells in G2/M phase,[8]; 48 h,40.1%
same,Proportion of HL-60 cells in G2/M phase,[8]; 72 h,46.6%
